Reference: US20190119348A1, “PARATHYROID HORMONE RECEPTOR 1 ANTAGONIST AND INVERSE AGONIST POLYPEPTIDES AND METHODS OF THEIR USE” (The General Hospital Corporation, priority 2016, published 2019)
pIC50: −log10 of the molar value. Like-named read-outs stand apart in the source and are kept apart here. Where a SMILES comes first, the peptide text is derived from it. [ ]: non-standard residue; d: D form.

What was measured:
[1] = molecular target: T1, PTHR1 (Homo sapiens, UniProt Q03431); assay: Antagonism of PTH(1-34)-induced cAMP response (GloSensor) in GP-2.3 cells; format: cell-based; settings: inhibition of PTH(1-34)-induced maximum response, read-out: corresponding nanomolar value of pIC50 (Table 4) (converted)
T1 construct: expressed in transfected cells; host or cells: GP-2.3 (HEK-293 stably transfected with hPTHR1 and GloSensor)
T1 sequence (Q03431 27-593): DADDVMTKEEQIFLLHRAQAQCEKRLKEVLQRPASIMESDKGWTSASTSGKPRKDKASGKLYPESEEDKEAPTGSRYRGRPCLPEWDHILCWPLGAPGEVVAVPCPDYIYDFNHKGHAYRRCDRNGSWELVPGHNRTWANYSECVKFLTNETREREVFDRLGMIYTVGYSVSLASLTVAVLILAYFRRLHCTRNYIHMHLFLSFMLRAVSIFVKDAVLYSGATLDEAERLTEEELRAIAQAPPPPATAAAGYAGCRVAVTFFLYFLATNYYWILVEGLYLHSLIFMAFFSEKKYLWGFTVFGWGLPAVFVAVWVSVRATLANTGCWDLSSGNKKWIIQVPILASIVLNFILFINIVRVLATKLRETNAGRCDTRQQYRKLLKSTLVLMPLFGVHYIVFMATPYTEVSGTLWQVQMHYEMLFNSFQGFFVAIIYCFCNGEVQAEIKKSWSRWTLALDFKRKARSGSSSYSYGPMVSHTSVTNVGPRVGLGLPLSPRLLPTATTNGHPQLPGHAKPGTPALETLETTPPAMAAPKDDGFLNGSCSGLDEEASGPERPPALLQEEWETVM
Experimental: cAMP signaling was assessed in the HEK293-derived or SaOS2-derived cell lines stably expressing the luciferase-based GloSensor™ cAMP reporter (Hattersley et al., Paper presented at: Novel Signaling Mechanisms and Bone Cell Biology 2014; Binkowski et al., Methods in molecular biology. 756:263-271). HEK-293 cells were further transfected to stably express the hPTHR1, hPTHR1-H223R, or hPTHR1-T410P. The cells were seeded into 96-well white plates and were assayed 24 to 48 hours post-confluency. Assays were performed at room temperature in CO2-independent culture media (Life Technologies, Corp., Carlsbad, Calif.) containing 0.1% BSA (CIDB). The cells were pre-loaded with luciferin (0.5 mM in CIDB) for 15 minutes, then PTH peptides were added at varying concentrations. cAMP-dependent luminescence was measured at two-minute intervals using a PerkinElmer Envision plate reader. The time at which maximum luminescence (cps) observed with agonist alone, typically at 10-20 minutes after agonist addition, was used to obtain data from wells containing antagonist with or without agonist, to thus generate antagonist ligand dose-response curves. The resulting cps values were then plotted against ligand concentration using GraphPad Prism 7.0 software and a four-parameter logistics curve fitting equation, which yielded parameters of inhibitory potency (pIC50).
(§1) Pharmacological properties of the ligands were assessed in cells expressing the PTHR1 and the GloSensor™ cAMP reporter. The assays used GP-2.3 cells, derived from HEK293 cells by stable transfection with the hPTHR1 and GloSensor™, as well as SGS-72 cells, which are derived from the human osteosarcoma cell line, Saos-2, in which is endogenously expressed the hPTHR1, by stable transfection with GloSensor™. Binding of representative polypeptides to the PTHR1 was assessed in GP-2.3 cells by radioligand competition methods (FIGS. 1A and 1B, Table 3).
[…] concentration of antagonist that inhibited the maximum response to PTH(1-34)-induced in the absence of antagonist (at ˜40 minutes) is reported in units of -log M (pIC50), and the corresponding nanomolar value is shown below each pIC50 value. Data are means of the number of experiments indicated (n). The PTH(1-34)-induced maximum luminescence was ˜80,000 cps and the basal was ˜1,000 cps. TMR indicates Lys13 modified at epsilon amino function with TMR, P vs. inhibition by dW12,Y34-bPTH(7-34).

[2] = molecular target: T2, PTHR1 (hPTHR1) (Homo sapiens, UniProt Q03431); assay: Radioligand competition binding in GP-2.3 cells; settings: for pIC50: means of four experiments
T2 construct: expressed in transfected cells; host or cells: GP-2.3 (HEK-293 stably transfected with hPTHR1 and GloSensor)
T2 sequence (Q03431 27-593): T1 sequence (Q03431 27-593)
Experimental: Intact cell binding reactions were performed in 96-well plates, and, following incubation, the cells were lysed with 1N NaOH, and the lysate was counted for gamma radiation. For membrane dissociation assays, reactions were assembled in 15 cc tubes, and, at times following membrane addition (t=0), aliquots were withdrawn and filtered through a well of a vacuum filtration 96-well plate, rinsed, and, after washing, the filters were removed and counted for gamma irradiation. […] Curves were fit to the data using a four-parameter sigmoidal dose-response equation.
as §1
The assays were performed in GP-2.3 cells with the two tracer ^125I-radioligands shown; values are half-maximal inhibitory concentration (pIC50) and corresponding nanomolar value (below) derived from curve fitting ligand dose-response data. Data are means of four experiments.

- IC50 [1]: 101 nM
- apparent PTHR1 affinity compared with dTrp^12-PTH(7-34)-1894 ([2]; radioligand competition): at least as strong
- pIC50 ([2]; tracer ^125I-PTH(1-34), read-out: half-maximal inhibitory concentration, corresponding nanomolar value, tracer ^125I-PTH(1-34)): 7.65
- pIC50 ([2]; tracer ^125I-PTHrP(5-36), read-out: half-maximal inhibitory concentration, corresponding nanomolar value, tracer ^125I-PTHrP(5-36)): 7.75
Structure (SMILES): CC[C@H](C)[C@H](N)C(=O)N[C@@H](CCC(N)=O)C(=O)N[C@@H](CC(C)C)C(=O)N[C@@H](CCSC)C(=O)N[C@@H](Cc1c[nH]cn1)C(=O)N[C@@H](CCC(N)=O)C(=O)N[C@@H](CCCNC(=N)N)C(=O)N[C@H](Cc1c[nH]c2ccccc12)C(=O)N[C@@H](CCCCN)C(=O)N[C@@H](Cc1c[nH]c2ccccc12)C(=O)N[C@H](C(=O)N[C@@H](CCC(N)=O)C(=O)N[C@@H](CC(=O)O)C(=O)N[C@@H](C)C(=O)N[C@@H](CCCNC(=N)N)C(=O)N[C@@H](CCCNC(=N)N)C(=O)N[C@@H](CCCNC(=N)N)C(=O)N[C@@H](C)C(=O)N[C@@H](Cc1c[nH]c2ccccc12)C(=O)N[C@@H](CC(C)C)C(=O)N[C@@H](Cc1c[nH]cn1)C(=O)N[C@@H](CCCCN)C(=O)N[C@@H](CC(C)C)C(=O)N[C@H](C(=O)N[C@@H](C)C(=O)N[C@@H](CCC(=O)O)C(=O)N[C@H](C(=O)N[C@@H](Cc1c[nH]cn1)C(=O)N[C@H](C(=O)N[C@@H](C)C(=O)N[C@@H](CCC(=O)O)C(=O)N[C@H](C(N)=O)[C@@H](C)CC)[C@@H](C)O)[C@@H](C)CC)[C@@H](C)CC)[C@@H](C)CC [compound 1949, dW12, W23-LA-PTH(5-36)] (H-IQLMHQR[dW]KWIQDARRRAWLHKLIAEIHTAEI-NH2; N-terminus assumed)
